The subject of data set [1] is HBV. As to the kind of experiment: Antiviral efficacy in AML12HBV10 cells, HBV DNA by dot-blot hybridization. The data set is classed as cell-based, Hepatitis B virus (HBV). How it is done: The antiviral efficacy of the compounds of the disclosure, as presented in Tables 5, 6, 7, 8 and 9, were determined in AML12HBV10 cells. AML12HBV10 is an immortalized murine hepatocyte (AML12)-derived stable cell line that supports robust HBV replication in a tetracycline inducible manner (Xu et al.). The cells were seeded into 96 well plates at a density of 2×10^4 cells per well and cultured in DMEM/F12 media with 10% fetal bovine serum in the absence of tetracycline to allow pgRNA transcription and HBV DNA replication. One day after seeding, cells were left untreated or treated with a serial dilution of testing compounds, ranging from 50 μM to 0.39 μM, for 48 hours. Cells were then lysed by adding into each well of 100 μl lysis buffer containing 10 mM Tris-HCl (pH 7.6), 1 mM EDTA, 100 mM NaCl and 1% NP-40 and incubated at 37° C. for 30 minutes. Half amount (50 μl) of cell lysate from each well was combined with equal volume of denaturing solution containing 0.5N NaOH and 1.5M NaCl. After 5 minute incubation, 100 μl of neutralization solution (IM Tris-HCl, pH 7.4, 1.5M NaCl) was added into each well. The denatured cell lysates (totally 200 μl) were applied onto Nylon membrane using 96-well dot-blot manifold (Biorad). HBV DNA in the cell lysates were determined by dot-blot hybridization with alpha-^32P-UTP-labelled riboprobe specific for HBV minus strand DNA. The antiviral efficacy of a compound of the disclosure was expressed as the concentration that reduces the amount of HBV DNA by 50% (EC50).

Data set [2] in a line: Cytotoxicity in AML12HBV10 cells, MTT assay. Conditions: mouse; AML12HBV10 cells, 48 hours, MTT; read-out: CC50 (cellular toxicity). The class given is cell-based, murine. On the procedure: (§1) Determination of cytotoxicity of compounds of the disclosure in AML12HBV10 cells: To determine the cytotoxicity of the compounds, AML12HBV10 cells were seeded into 96-well plates at a density of 2×10^4 cells per well and cultured in DMEM/F12 media with 10% fetal bovine serum in the absence of tetracycline to allow pgRNA transcription and HBV DNA replication. One day after seeding, cells were left untreated or treated with a serial dilution of testing compounds, ranging from 50 μM to 0.39 μM, for 48 hours. The cell viability was measured by a MTT assay, following procedure provided by the manufacturer (Promega). The cytotoxicity of a compound was expressed as the concentration of compound that reduces the viability of the cells by 50% (CC50).
In general terms: Tetrazolium assays rely on reduction of a dye to a coloured formazan, in cell work by metabolically active cells.

The test system of another data set is encapsidated pgRNA. As to the kind of experiment: Encapsidated pgRNA by Northern blot in AML12HBV10 cells. Conditions: 2 days, FIG. 3 panel C, Bay41-4109 5 μM, AT-61 25 μM. The class given is cell-based, Hepatitis B virus (HBV). On the procedure: (§2) To obtain mechanistic insight of the compounds of present invention against HBV, AML12HBV10 cells cultured in the 12-well plates were treated with a series of concentrations of DVR-1, DVR-56 or DVR-23 for two days in the absence of tetracycline (Guo et al., 2007). As positive controls, the cells were also treated with Bay41-4109 (5 μM) or AT-61 (25 μM), the known HBV nucleocapsid assembly effectors that either bind to HBV core protein dimmer to misdirect its interaction and prevent capsid formation (Bay41-4109) (Deres et al., 2003: Stray and Zlotnick, 2006), or interact with a core assembly intermediate and promote the formation of empty capsids (AT-61) (Feld et al., 2007; Katen et al., King et al., 1998). The amounts of intracellular viral mRNA, encapsidated pgRNA, capsids and nucleocapsid-associated HBV DNA were analyzed with the methods detailed below.
Determination of encapsidated pgRNA: AML12HBV10 cells were lysed by addition of 600 μl of lysis buffer (50 mM Tris-HCl [pH 7.5], 1 mM EDTA, 150 mM NaCl, 1% NP-40) into each well of 12-well plates. The nuclei were removed by centrifugation at 5,000 g for 10 minutes. One-half of the sample was mixed with 6 U of micrococcal nuclease (Pharmacia) and 15 μl of 100 mM CaCl2 and incubated for 15 minutes at 37° C. to digest free nucleic acids. The reaction was stopped with 6 μl of 0.5 M EDTA, and capsids were precipitated by adding 125 μl of 35% polyethylene glycol 8000 in 1.75 M NaCl to the reaction and incubating in ice for 30 minutes, followed by centrifugation at 6,000 g for 10 minutes at 4° C. Pellets were re-suspended in 50 μl of TNE buffer (10 mM Tris-HCl [pH 8], 100 mM NaCl, 1 mM EDTA), pgRNA was extracted by the addition of 1 ml of Trizol reagent. The encapsidated pgRNA were electrophoresed through a 2.2 M formaldehyde-1% agarose gel, transferred to a nylon membrane, and immobilized by UV cross-linking (Stratagene). Hybridization was performed with an alpha-^32P-UTP labeled riboprobe specific for plus strand of HBV genome.

The test system of data set [3] is capsid-associated HBV DNA. The experiment in a line: Nucleocapsid-associated HBV DNA and DNA replication intermediates (particle gel hybridization, Southern blot). The data set is classed as cell-based, Hepatitis B virus (HBV). Conditions: AML12HBV10 cells, 2 days, FIG. 3 panels D and E; Bay41-4109 5 μM, AT-61 25 μM. On the procedure:
as §2
Procedures of viral capsids and nucleocapsid-associated DNA analysis: HepDES19 cells were lysed by addition of 300 μl buffer containing 10 mM Tris-HCl (pH7.6), 100 mM NaCl, 1 mM EDTA and 0.1% NP-40 to each well of 12-well plate. […] HBV capsids were detected by probing the membrane with an antibody against HBV core protein (DAKO). […] The viral DNA was detected by hybridization with a α-^32P-UTP (800 Ci/mmol, Perkin Elmer) labeled minus strand specific full-length HBV riboprobe (Xu et al.). […]

In a further data set the test system is HBV capsids. The experiment in a line: Viral capsids by particle gel assay. As to conditions: AML12HBV10 cells, 2 days, FIG. 3 panel B; Bay41-4109 5 μM, AT-61 25 μM. The data set is classed as cell-based, Hepatitis B virus (HBV). On the procedure: as §2
Procedures of viral capsids and nucleocapsid-associated DNA analysis: HepDES19 cells were lysed by addition of 300 μl buffer containing 10 mM Tris-HCl (pH7.6), 100 mM NaCl, 1 mM EDTA and 0.1% NP-40 to each well of 12-well plate. […] HBV capsids were detected by probing the membrane with an antibody against HBV core protein (DAKO). […] The viral DNA was detected by hybridization with a α-^32P-UTP (800 Ci/mmol, Perkin Elmer) labeled minus strand specific full-length HBV riboprobe (Xu et al.).

Another data set relates to AML12HBV10 cells. As to the kind of experiment: Cytotoxicity in AML12HBV10 cells, MTT assay. The class given is cell-based, murine. On the procedure:
as §1

Data set [4] can be described thus: Cytotoxicity in HepDES19 cells, MTT assay. The data set is classed as cell-based. As to conditions: human, Table 10, HepDES19 cells, unit inferred. On the procedure:
as §1, with “human hepatoma-derived cell lines, HepDES19” for “AML12HBV10 cells: To determine the cytotoxicity of the compounds, AML12HBV10”, “2×10^4” left out, “tetracycline.” for “tetracycline to allow pgRNA transcription and HBV DNA replication.”, “6 days.” for “48 hours.”

Data set [5] concerns HBV. As to the kind of experiment: Antiviral activity in HepDES19 cells, core-associated HBV DNA by Southern blot hybridization. The data set is classed as cell-based. Conditions: Hepatitis B virus, 144 h, Table 10, HepDES19 cells, 6 days, unit inferred. How it is done: FIG. 2 and Table 10, in human hepatoma-derived cell lines: To further confirm the antiviral activity of the compounds of the disclosure against HBV in human hepatocyte-derived cells, HepDES19 cells, a human hepatoma cell line supporting HBV replication in a tetracycline inducible manner (Guo et al., 2007), seeded into 12-well plates at a density of 5×10^5 cells per well and cultured in DMEM/F12 media with 10% fetal bovine serum and 1 μg/ml tetracycline. Two days after seeding, the cells were mock-treated or treated with a serial dilution of compounds of the disclosure, ranging from 10 μM to 0.018 μM, for 6 days in the absence of tetracycline. Upon the completion of treatment, cells were lysed by adding into each well of the 12-well plates 0.5 ml of lysis buffer containing 10 mM Tris-HCl (pH 8.0), 1 mM EDTA, 1% NP40 and 2% sucrose and incubating at 37° C. for 10 minutes. Cell debris and nuclei were removed by centrifugation and the supernatant was mixed with 130 μl of 35% polyethylene glycol (PEG) 8000 containing 1.5 M NaCl. After 1 hour incubation in ice, viral nucleocapsids were pelleted by centrifugation at 6,000×g for 5 min at 4° C., followed by 1 hour digestion at 37° C. in 400 μl of digestion buffer containing 0.5 mg/ml pronase (Calbiochem), 0.5% SDS, 150 mM NaCl, 25 mM Tris-HCl (pH 8.0) and 10 mM EDTA. The digestion mixture was extracted twice with phenol and DNA was precipitated with ethanol, dissolved in TE buffer (10 mM Tris-HCl, pH 8.0; 0.1 mM EDTA). One half of the DNA sample from each well was resolved by electrophoresis into a 1.5% agarose gel. The gel was then subjected to denaturation in a solution containing 0.5 M NaOH and 1.5 M NaCl, followed by neutralization in a buffer containing 1 M Tris-HCl (pH7.4) and 1.5 M NaCl. DNA was then blotted onto Hybond-XL membrane (GE Health care) in 20×SSC buffer. The amounts of cytoplasmic HBV core-associated HBV DNA were determined by Southern blot hybridization and the antiviral efficacy of a compound was expressed as its concentration that reduce the amount of HBV DNA by 50% (EC50) or 90% (EC90).

[6] abbreviates: Hepatitis B virus, AML12HBV10 cells, 48 hours, concentration reducing HBV DNA by 50%, read-out: EC50 (antiviral activity by dot blot hybridization).
The mark [7] stands for this setting: AML12HBV10 cells, 48 hours, concentration reducing HBV DNA by 50%, read-out: EC50 (antiviral activity by dot blot hybridization).
Setting [8] is: AML12HBV10 cells, 48 hours, MTT, read-out: CC50 (cellular toxicity).

Read-outs that look alike come from different tables or passages of the source.

Regarding `O=C(NCc1ccccc1)c1ccc2c(c1)NC(=O)c1ccccc1S2(=O)=O`, in the data set with HBV [1] (setting [6]), the EC50 (commonly the midpoint of the concentration-response curve) was 8 µM. The CC50 (in general, the concentration at which the toxic effect on the cells reaches its halfway point) at 48 h in data set [2] was over 50 µM.
`O=C(N/C(C(=O)N1CCCCC1)=C(/Cl)c1ccccc1)c1ccccc1` [AT-61]: in the data set with encapsidated pgRNA, the “level of encapsidated pgRNA” value was “dose-dependently reduced”. Besides, in data set [3], the “capsid-associated HBV DNA / DNA synthesis” value was “dose-dependently reduced”. The capsid formation result in the data set on HBV capsids is given as “did not affect”.
Turning to `Cc1cccc(NC(=O)c2cc(S(N)(=O)=O)ccc2Cl)c1` [DVR-16], the EC50 with HBV [1] (setting [7]) was 6 µM. In the data set on AML12HBV10 cells (setting [8]), the CC50 is over 50 µM.
The matching figures for `NS(=O)(=O)c1cc(C(=O)Nc2cccc(C(F)(F)F)c2)ccc1F` [DVR-19]: 9 µM and over 50 µM.
Turning to `NS(=O)(=O)c1cc(C(=O)Nc2cc(C(F)(F)F)ccc2Cl)ccc1F` [DVR-21], in the data set on HBV [1] (setting [7]), the EC50 is 6.8 µM. The CC50 in the data set with AML12HBV10 cells (setting [8]) is over 50 µM.
Regarding `NS(=O)(=O)c1cccc(C(=O)Nc2ccccc2)c1` [DVR-22], in the data set on HBV [1] (setting [7]), the EC50 amounted to 8 µM. Moreover, the CC50 in the data set with AML12HBV10 cells (setting [8]) is over 50 µM.
Consider `C=CCNS(=O)(=O)c1ccc(F)c(C(=O)Nc2ccc(F)c(F)c2)c1` [DVR-34], for which the EC50 in the data set with HBV [1] (setting [7]) is 4 µM. In addition, in the data set with AML12HBV10 cells (setting [8]), the 50% cytotoxic concentration (CC50) is over 50 µM.
As for `O=C(Nc1ccc(F)c(F)c1)c1cc(S(=O)(=O)NC2CCCCC2)ccc1F` [DVR-45, 5-cyclohexylsulfamoyl-N-(3,4-difluoro-phenyl)-2-fluoro-benzamide], the EC50 in the data set on HBV [1] (setting [6]) stood at 0.8 µM; in the data set with HBV [1] (Hepatitis B virus, Table 10, AML12HBV10 cells, unit inferred, read-out: AML12HBV10 EC50), 0.8 µM; in the data set on HBV [5] (Southern blot) it was 0.48 µM. In data set [4], this compound had a half-maximal cytotoxic concentration (CC50) at 6 days of over 50 µM. Also, in the data set with HBV [5] (HBV DNA reduced by 90%), the 90% effect level (EC90) was put at 2.11 µM. In addition, the half-maximal cytotoxic concentration (CC50) at 48 h in data set [2] was over 50 µM. Besides, the half-maximal cytotoxic concentration (CC50) with AML12HBV10 cells (Table 10, AML12HBV10 cells, unit inferred, read-out: AML12HBV10 CC50) is over 50 µM.
In the case of `COc1ccc(CCNS(=O)(=O)c2ccc(F)c(C(=O)Nc3ccc(Cl)cc3)c2)cc1OC` [DVR-91], the EC50 in the data set on HBV [1] (setting [7]) stood at 16.8 µM. Moreover, in the data set on AML12HBV10 cells (setting [8]), the CC50 was over 50 µM.

Source of the values: patent US9758477B2, “Sulfamoylbenzamide derivatives as antiviral agents against HBV infection” (priority 2011, dated 2017).
